From US11202761B2, “Formulations for oral delivery of adsorbents in the gut” (Da Volterra, priority 2010, dated 2021)
Where two headings read alike, the source gives them in different places.

How the values were obtained:
[1] = Kinetics of ciprofloxacin adsorption by activated charcoal measured by microbiological assay; conditions: ciprofloxacin 50 μg/ml, 150 μg/ml activated charcoal, pH 6.0
Procedure: The microbiological assay consists in measuring the biological activity of an antibiotic, i.e. its capacity to inhibit the growth of an indicator bacterial strain. […] 20 μl samples containing the antibiotic to be measured were spotted onto paper discs applied directly onto the surface of the agar plates. After 18 h incubation at 37° C., the diameters of the zones around the paper discs where bacterial growth had been inhibited by the presence of the antibiotic were measured.

[2] = in vitro adsorption of various antibiotics onto activated charcoal; format: physicochemical; conditions: PBS pH 6, 37° C.
Procedure: (15 ml polypropylene tube, slow rotation 20 rpm), • sampling at 0.5 h, 1 h and 2 h, • Residual antibiotic dosage (i.e., not adsorbed) was determined by UV/visible spectrophotometric analysis.

topoisomerase I = target: T1, topoisomerase I (Homo sapiens, UniProt P11387); conditions: in vitro; cited from earlier work
T1 sequence (P11387 1-765): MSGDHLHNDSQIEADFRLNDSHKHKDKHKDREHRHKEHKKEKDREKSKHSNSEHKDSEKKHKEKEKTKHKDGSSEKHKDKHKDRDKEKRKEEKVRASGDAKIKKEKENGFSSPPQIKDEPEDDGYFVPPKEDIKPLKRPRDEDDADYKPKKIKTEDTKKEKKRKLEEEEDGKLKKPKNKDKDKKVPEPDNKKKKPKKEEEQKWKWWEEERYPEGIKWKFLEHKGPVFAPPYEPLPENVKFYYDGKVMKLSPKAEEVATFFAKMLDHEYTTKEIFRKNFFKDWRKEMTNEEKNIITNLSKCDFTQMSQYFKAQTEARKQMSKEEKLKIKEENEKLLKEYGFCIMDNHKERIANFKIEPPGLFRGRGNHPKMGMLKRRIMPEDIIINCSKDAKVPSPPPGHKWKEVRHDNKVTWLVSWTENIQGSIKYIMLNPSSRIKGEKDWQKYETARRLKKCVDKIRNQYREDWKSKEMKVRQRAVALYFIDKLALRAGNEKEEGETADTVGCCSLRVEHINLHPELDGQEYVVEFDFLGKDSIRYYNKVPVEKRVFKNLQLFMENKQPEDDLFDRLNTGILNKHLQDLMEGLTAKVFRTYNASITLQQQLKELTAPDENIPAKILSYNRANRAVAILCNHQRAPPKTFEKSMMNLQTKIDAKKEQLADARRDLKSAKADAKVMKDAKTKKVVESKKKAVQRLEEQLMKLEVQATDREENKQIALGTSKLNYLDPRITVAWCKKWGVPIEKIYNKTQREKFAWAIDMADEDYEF

[3] = In vitro adsorption kinetics of SN-38 onto activated charcoal; format: physicochemical; conditions: activated charcoal/SN-38 ratio of 10:1, 50 μg/mL in 0.01 M NaOH pH 12
Procedure: SN-38 was dissolved at a concentration of 50 μg/mL in 0.01 M NaOH pH 12. Non adsorbed SN-38 was detected after centrifugation and filtration by at its absorbance at 411 nm using a spectrophotometer.

[4] = 10:1 ratio of activated charcoal/irinotecan, 200 μg/mL, simulated ileal medium pH 7.5
Source text: Samples were centrifuged, filtered, and diluted ten-fold, prior to determination of the non-adsorbed concentration of irinotecan by measuring its absorbance at 368 nm using a spectrophotometer.

[5] = start 3/1, extra charcoal: 6/1 after 1 h and 9/1 after 2 h
[6] = start 10/1, extra charcoal: 20/1 after 1 h and 30/1 after 2 h

SMILES | Residual antibiotic after 2 h (*) [2, 5] | Residual antibiotic after 2 h (*) [2, 6] | other results
O=C(O)c1cn(C2CC2)c2cc(N3CCNCC3)c(F)cc2c1=O [Ciprofloxacine] | – | – | antibiotic adsorbed by the charcoal ([1]; time zero sample = approximately one minute of contact): ~70%; antibiotic adsorbed onto the charcoal ([1]; within one hour): Almost all of the antibiotic was adsorbed
O=C(O)[C@H]1/C(=C/CO)O[C@@H]2CC(=O)N21 [Clavulanate] | 22% | 3.5% | –
CCc1c2c(nc3ccc(O)cc13)-c1cc3c(c(=O)n1C2)COC(=O)[C@]3(O)CC [SN-38, 7-ethyl-10-hydroxycamptothecin] | – | – | antineoplastic activity relative to the prodrug form (Irinotecan) (topoisomerase I): 1000 fold; time to complete adsorption [3]: ~30 min
C[C@]1(Cn2ccnn2)[C@H](C(=O)O)N2C(=O)C[C@H]2S1(=O)=O [Tazobactam] | <20% | – | –
CN(C)c1cc(NC(=O)CNC(C)(C)C)c(O)c2c1C[C@H]1C[C@H]3[C@H](N(C)C)C(O)=C(C(N)=O)C(=O)[C@@]3(O)C(O)=C1C2=O [Tigecycline] | 21% | – | –
CC[C@H]1OC(=O)C[C@@H](O)[C@H](C)[C@@H](O[C@@H]2O[C@H](C)[C@@H](O[C@H]3C[C@@](C)(O)[C@@H](O)[C@H](C)O3)[C@H](N(C)C)[C@H]2O)[C@@H](CC=O)C[C@@H](C)C(=O)/C=C/C(C)=C/[C@@H]1CO[C@@H]1O[C@H](C)[C@@H](O)[C@@H](OC)[C@H]1OC [Tylosine] | <3% | <3% | –
CN[C@H](CC(C)C)C(=O)N[C@H]1C(=O)N[C@@H](CC(N)=O)C(=O)N[C@H]2C(=O)N[C@H]3C(=O)N[C@H](C(=O)N[C@H](C(=O)O)c4cc(O)cc(O)c4-c4cc3ccc4O)[C@H](O)c3ccc(c(Cl)c3)Oc3cc2cc(c3O[C@@H]2O[C@H](CO)[C@@H](O)[C@H](O)[C@H]2O[C@H]2C[C@](C)(N)[C@H](O)[C@H](C)O2)Oc2ccc(cc2Cl)[C@H]1O [Vancomycin] | 27% | <1.25% | –
CCc1c2c(nc3ccc(OC(=O)N4CCC(N5CCCCC5)CC4)cc13)-c1cc3c(c(=O)n1C2)COC(=O)[C@]3(O)CC [irinotecan, Irinotecan] | – | – | time to complete adsorption [4]: about 15 minutes
